From US11168095B2, “ASK1 inhibiting agents” (BIOGEN MA INC., priority 2017, dated 2021)
Like-named read-outs stand apart in the source and are kept apart here.

Columns and labels:
ASK1/MAP3K5 = ASK1/MAP3K5 (Homo sapiens (Human), UniProt Q99683); assay: ASK1/MAP3K5 assay by Reaction Biology Corp.; type: biochemical
Procedure: ASK1/MAP3K5 was used as the protein kinase and 20 μM of myelin basic protein (MBP) and 10 μM ATP were used as the substrate.

[1] = molecular target: ASK1 T838 auto phosphorylation in HEK-293T cells (Homo sapiens (Human), UniProt Q99683); assay: ASK1 (AUTO PHOS T838) assay, MSD format; type: cell-based; details: HEK 293T cells transfected with ASK1-V5 full length plasmid, compounds 1 hr at 37° C.; read-out: IC50
Procedure: The plates were incubated at 37° C. overnight. Media on plates was changed to OPTI-MEM, serum free media and cells were transfected with 9 μg of ASK1-V5 tagged full length plasmid using Lipofectamine 2000 (Invitrogen) and the plates were incubated at 37° C. overnight. Cells were trypsinized, counted on Nexcellometer and plated into 96 well tissue culture plates with 100,000 cells/well and 200 μL media. Cells were incubated for 4 hr at 37° C. then ASK1 compounds were added using a HP 300e. Compounds were tested at 20 μM with 3 fold, 10 point dilution points then incubated for 1 hr at 37° C. A lysis buffer (Cell Signaling) was prepared with protease and phosphatase inhibitor and maintained at 4° C. until use. Media from cells was discarded and 120 μL of cold lysis buffer was added to the cells, the plate was shaken 4° C. for 1 hr. Lysate was mixed using Apricot liquid handler; aspirating up and down 16 times at high speed using 50 μL volume. […] Plates were then incubated on a plate shaker overnight at 4° C. Plates were washed 3× with MSD wash buffer and 50 μL of rabbit anti-pASK1 T838 antibody was added to the wells and incubated for 2 hr at room temperature on a plate shaker. Plates were then washed and 50 μL of goat anti-rabbit sulfa-tag (1:500 dilution) was added to wells, and incubated for 1 hr at room temperature on a plate shaker. […] Plates were immediately read on a MSD Instrument Reader where chemoluminecense signal was measured. Data was analyzed using Graph Pad or Genedata, the data was normalized and plotted, % activity versus log of compound concentration. The IC50 values were obtained from a 4 parameter fit.

[2] = 20 μM myelin basic protein (MBP), 10 μM ATP

Sequence of ASK1/MAP3K5 (Q99683 whole entry): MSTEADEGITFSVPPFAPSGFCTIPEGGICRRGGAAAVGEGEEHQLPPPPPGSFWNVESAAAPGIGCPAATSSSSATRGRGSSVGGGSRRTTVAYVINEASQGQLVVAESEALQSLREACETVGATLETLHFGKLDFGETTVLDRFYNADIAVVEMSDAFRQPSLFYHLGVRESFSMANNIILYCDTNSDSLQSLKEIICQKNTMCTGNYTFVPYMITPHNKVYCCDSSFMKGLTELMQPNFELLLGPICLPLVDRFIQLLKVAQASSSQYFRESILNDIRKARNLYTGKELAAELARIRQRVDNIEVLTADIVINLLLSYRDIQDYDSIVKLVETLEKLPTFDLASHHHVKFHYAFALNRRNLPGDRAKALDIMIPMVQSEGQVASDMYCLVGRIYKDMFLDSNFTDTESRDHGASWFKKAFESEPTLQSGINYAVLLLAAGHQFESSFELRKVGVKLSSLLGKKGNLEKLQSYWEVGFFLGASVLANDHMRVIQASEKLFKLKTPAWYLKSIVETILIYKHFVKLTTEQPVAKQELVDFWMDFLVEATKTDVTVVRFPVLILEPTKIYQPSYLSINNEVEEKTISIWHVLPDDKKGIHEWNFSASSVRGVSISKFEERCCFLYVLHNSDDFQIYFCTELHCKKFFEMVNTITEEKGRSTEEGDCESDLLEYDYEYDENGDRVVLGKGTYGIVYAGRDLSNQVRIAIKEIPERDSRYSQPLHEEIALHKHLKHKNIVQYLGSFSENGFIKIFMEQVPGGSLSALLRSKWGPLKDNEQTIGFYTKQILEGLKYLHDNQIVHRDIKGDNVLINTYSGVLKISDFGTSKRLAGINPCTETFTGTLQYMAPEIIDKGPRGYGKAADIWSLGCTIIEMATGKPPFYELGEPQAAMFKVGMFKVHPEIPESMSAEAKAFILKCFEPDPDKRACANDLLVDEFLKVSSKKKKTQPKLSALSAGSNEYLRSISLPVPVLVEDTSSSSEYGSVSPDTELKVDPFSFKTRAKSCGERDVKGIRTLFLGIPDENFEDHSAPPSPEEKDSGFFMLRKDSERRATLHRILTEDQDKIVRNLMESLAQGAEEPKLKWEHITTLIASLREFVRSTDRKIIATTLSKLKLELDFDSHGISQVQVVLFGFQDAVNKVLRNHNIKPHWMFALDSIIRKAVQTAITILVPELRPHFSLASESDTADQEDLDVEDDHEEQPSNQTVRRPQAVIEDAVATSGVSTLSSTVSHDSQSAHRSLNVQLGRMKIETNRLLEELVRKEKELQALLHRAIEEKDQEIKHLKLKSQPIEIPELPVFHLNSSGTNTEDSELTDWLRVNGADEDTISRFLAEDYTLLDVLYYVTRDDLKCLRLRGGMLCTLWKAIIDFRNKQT
Sequence of ASK1 T838 auto phosphorylation in HEK-293T cells (Q99683 whole entry): as above

Row | IC50 (ASK1/MAP3K5; [2]) [nM] | IC50 [1] [nM] | SMILES | IC50 (ASK1/MAP3K5) [nM]
1 | < 100 | < 1000 | C[C@H]1CCCOc2cc(F)c(C#N)cc2C(=O)Nc2cccc(n2)-c2nncn21 [Example 118, (S)-5^4-Fluoro-10-methyl-4-oxo-1^4H-6-oxa-3-aza-2(2,6)-pyridina-1(3,4)-triazola-5(1,2)-benzenacyclodecaphane-5^5-carbonitrile] | 
2 | < 100 | < 1000 | O=C1Nc2cccc(n2)-c2nncn2CCCCOc2cc(F)c(-c3ccnnc3)cc21 [Example 61, 5^4-Fluoro-5^5-(pyridazin-4-yl)-1^4H-6-oxa-3-aza-2(2,6)-pyridina-1(3,4)-triazola-5(1,2)-benzenacyclodecaphan-4-one] | 
3 | < 100 | < 1000 | N#Cc1cc2c(cc1F)OCCCCn1cnnc1-c1cccc(n1)NC2=O [Example 74, 5^4-Fluoro-4-oxo-1^4H-6-oxa-3-aza-2(2,6)-pyridina-1(3,4)-triazola-5(1,2)-benzenacyclodecaphane-55-carbonitrile] | 
4 | 1000 to 10000 | > 10000 | C[C@@H]1CCCOc2cc(F)c(Br)cc2C(=O)Nc2cccc(n2)-c2nncn21 [Example 102, (R)-5^5-Bromo-5^4-fluoro-10-methyl-1^4H-6-oxa-3-aza-2(2,6)-pyridina-1(3,4)-triazola-5(1,2)-benzenacyclodecaphan-4-one] | 
5 |  | < 1000 | C[C@@H]1CCOc2cc(F)c(-c3cnn4c3CN(C)CC4)cc2C(=O)Nc2cccc(n2)-c2nncn2C1 [Example 132, (R)-5^4-Fluoro-9-methyl-5^5-(5-methyl-4,5,6,7-tetrahydropyrazolo[1,5-a]pyrazin-3-yl)-1^4H-6-oxa-3-aza-2(2,6)-pyridina-1(3,4)-triazola-5(1,2)-benzenacyclodecaphan-4-one] | 
6 |  | < 1000 | C[C@H]1CCCOc2cc(F)c(-c3ccncc3F)cc2C(=O)Nc2cccc(n2)-c2nncn21 [Example 109, (S)-5^4-Fluoro-5^5-(3-fluoropyridin-4-yl)-10-methyl-1^4H-6-oxa-3-aza-2(2,6)-pyridina-1(3,4)-triazola-5(1,2)-benzenacyclodecaphan-4-one] | 
7 |  | < 1000 | Cc1cn(-c2cc3c(cc2F)OCC[C@H](C)Cn2cnnc2-c2cccc(n2)NC3=O)cn1 [Example 133, (S)-5^4-Fluoro-9-methyl-5^5-(4-methyl-1H-imidazol-1-yl)-1^4H-6-oxa-3-aza-2(2,6)-pyridina-1(3,4)-triazola-5(1,2)-benzenacyclodecaphan-4-one] | 
8 |  | < 1000 | C[C@H]1CCOc2cc(F)c(-c3cnn4c3CN(C)CC4)cc2C(=O)Nc2cccc(n2)-c2nncn2C1 [Example 131, (S)-5^4-Fluoro-9-methyl-5^5-(5-methyl-4,5,6,7-tetrahydropyrazolo[1,5-a]pyrazin-3-yl)-1^4H-6-oxa-3-aza-2(2,6)-pyridina-1(3,4)-triazola-5(1,2)-benzenacyclodecaphan-4-one] | 
9 |  | < 1000 | C[C@H]1CCOc2cc(F)c(-c3ccc(F)nc3)cc2C(=O)Nc2cccc(n2)-c2nncn2C1 [Example 129, (S)-5^4-Fluoro-5^5-(6-fluoropyridin-3-yl)-9-methyl-1^4H-6-oxa-3-aza-2(2,6)-pyridina-1(3,4)-triazola-5(1,2)-benzenacyclodecaphan-4-one] | 
10 |  | < 1000 | CN1CCn2ncc(-c3cc4c(cc3F)OCC/C=C\Cn3cnnc3-c3cccc(n3)NC4=O)c2C1 [Example 182, (Z)-5^4-Fluoro-5^5-(5-methyl-4,5,6,7-tetrahydropyrazolo[1,5-a]pyrazin-3-yl)-1^4H-6-oxa-3-aza-2(2,6)-pyridina-1(3,4)-triazola-5(1,2)-benzenacycloundecaphan-9-en-4-one] | 
11 |  | < 1000 | C[C@H]1CCOc2cc(F)c(N3CCOCC3)cc2C(=O)Nc2cccc(n2)-c2nncn2C1 [Example 126, (S)-5^4-Fluoro-9-methyl-5^5-morpholino-1^4H-6-oxa-3-aza-2(2,6)-pyridina-1(3,4)-triazola-5(1,2)-benzenacyclodecaphan-4-one] | 
12 |  | < 1000 | C[C@H]1CCOc2cc(F)c(-c3cccnc3F)cc2C(=O)Nc2cccc(n2)-c2nncn2C1 [Example 128, (S)-5^4-Fluoro-5^5-(2-fluoropyridin-3-yl)-9-methyl-1^4H-6-oxa-3-aza-2(2,6)-pyridina-1(3,4)-triazola-5(1,2)-benzenacyclodecaphan-4-one] | 

Second part, the molecule before the results:

Row | SMILES | IC50 (ASK1/MAP3K5; [2]) [nM] | IC50 [1] [nM] | IC50 (ASK1/MAP3K5) [nM]
13 | O=C1Nc2cccc(n2)-c2nncn2CCCCOc2cc(N3CCOCC3)ccc21 [Example 80, 5^4-Morpholino-1^4H-6-oxa-3-aza-2(2,6)-pyridina-1(3,4)-triazola-5(1,2)-benzenacyclodecaphan-4-one] | < 100 | < 1000 | 
14 | CN1CCN(c2cc3c(cc2F)OCCCCn2cnnc2-c2cccc(n2)NC3=O)CC1 [Example 73, 5^4-Fluoro-5^5-(4-methylpiperazin-1-yl)-1^4H-6-oxa-3-aza-2(2,6)-pyridina-1(3,4)-triazola-5(1,2)-benzenacyclodecaphan-4-one] | < 100 | < 1000 | 
15 | C[C@@H]1CN(C)CCN1c1ccc2c(c1)OCCCCn1cnnc1-c1cccc(n1)NC2=O [Example 83, (R)-5^4-(2,4-Dimethylpiperazin-1-yl)-1^4H-6-oxa-3-aza-2(2,6)-pyridina-1(3,4)-triazola-5(1,2)-benzenacyclodecaphan-4-one] | < 100 | < 1000 | 
16 | O=C1Nc2cccc(n2)-c2nncn2C/C=C/COc2ccc(N3CCOCC3)cc21 [Example 168, (E)-5^5-Morpholino-1^4H-6-oxa-3-aza-2(2,6)-pyridina-1(3,4)-triazola-5(1,2)-benzenacyclodecaphan-8-en-4-one] |  | < 1000 | < 100
17 | CC(C)(O)c1ccc2c(c1)C(=O)Nc1cccc(n1)-c1nncn1CCCCO2 [Example 49, 5^5-(2-Hydroxypropan-2-yl)-1^4H-6-oxa-3-aza-2(2,6)-pyridina-1(3,4)-triazola-5(1,2)-benzenacyclodecaphan-4-one] | < 100 | < 1000 | 
18 | COCCOc1cc2c(cc1F)OCCCCn1cnnc1-c1cccc(n1)NC2=O [Example 75, 5^4-Fluoro-5^5-(2-methoxyethoxy)-1^4H-6-oxa-3-aza-2(2,6)-pyridina-1(3,4)-triazola-5(1,2)-benzenacyclodecaphan-4-one] | < 100 | < 1000 | 
19 | O=C1Nc2cccc(n2)-c2nncn2CCCCOc2cc(F)c(N3CCOCC3)cc21 [Example 71, 5^4-Fluoro-5^5-morpholino-1^4H-6-oxa-3-aza-2(2,6)-pyridina-1(3,4)-triazola-5(1,2)-benzenacyclodecaphan-4-one] | < 100 | < 1000 | 
20 | CC(C)(C#N)c1ccc2c(c1)C(=O)Nc1cccc(n1)-c1nncn1CCCCO2 [Example 51, 2-Methyl-2-(4-oxo-1^4H-6-oxa-3-aza-2(2,6)-pyridina-1(3,4)-triazola-5(1,2)-benzenacyclodecaphane-5^5-yl)propanenitrile] |  | < 1000 | 
21 | CN(C)CCn1cc(-c2cc3c(cc2C(F)(F)F)OCCCCn2cnnc2-c2cccc(n2)NC3=O)cn1 [Example 77, 5^5-(1-(2-(Dimethylamino)ethyl)-1H-pyrazol-4-yl)-5^4-(trifluoromethyl)-1^4H-6-oxa-3-aza-2(2,6)-pyridina-1(3,4)-triazola-5(1,2)-benzenacyclodecaphan-4-one] |  | < 1000 | 
22 | C[C@H]1CCCOc2cc(F)c(N3CCN(C)CC3)cc2C(=O)Nc2cccc(n2)-c2nncn21 [Example 105, (S)-5^4-Fluoro-10-methyl-5^5-(4-methylpiperazin-1-yl)-1^4H-6-oxa-3-aza-2(2,6)-pyridina-1(3,4)-triazola-5(1,2)-benzenacyclodecaphan-4-one] |  | < 1000 | 
